In ChEMBL document CHEMBL6177980 (J Med Chem, 2025):
≈ marks a conversion by molar mass, not a printed value. Calls of active or inactive are those of the source. The calls are words filed in the database; no cut-off is given here.

Key:
[1] = Stability of compound at pH 1.5 assessed as change in purity at 1 mg/ml incubated for 12 hrs by HPLC analysis; type: physicochemical; conditions: buffer, pH 1.5, 12 h
[2] = Stability of compound at pH 1.5 assessed as change in purity at 1 mg/ml incubated for 24 hrs by HPLC analysis; type: physicochemical; conditions: buffer, pH 1.5, 24 h
[3] = AUC (0 to t) in fasted Sprague-Dawley rat at 24 mg/kg, po by LC-MS/MS analysis; type: ADME, organism-based; conditions: in vivo
[4] = Stability of compound at pH 6.8 assessed as change in purity at 1 mg/ml incubated for 24 hrs by HPLC analysis; type: physicochemical; conditions: buffer, pH 6.8, 24 h
[5] = Stability of compound at pH 4.0 assessed as change in purity at 1 mg/ml incubated for 4 hrs by HPLC analysis; type: physicochemical; conditions: buffer, pH 4, 4 h
[6] = Stability of compound at pH 1.5 assessed as change in purity at 1 mg/ml incubated for 4 hrs by HPLC analysis; type: physicochemical; conditions: buffer, pH 1.5, 4 h
[7] = Cmax in fasted Sprague-Dawley rat at 24 mg/kg, po by LC-MS/MS analysis; type: ADME, organism-based; conditions: in vivo
[8] = Stability of compound at pH 6.8 assessed as change in purity at 1 mg/ml incubated for 12 hrs by HPLC analysis; type: physicochemical; conditions: buffer, pH 6.8, 12 h
[9] = Stability of compound at pH 6.8 assessed as change in purity at 1 mg/ml incubated for 4 hrs by HPLC analysis; type: physicochemical; conditions: buffer, pH 6.8, 4 h
[10] = Stability of compound at pH 4.0 assessed as change in purity at 1 mg/ml incubated for 12 hrs by HPLC analysis; type: physicochemical; conditions: buffer, pH 4, 12 h
[11] = Stability of compound at pH 4.0 assessed as change in purity at 1 mg/ml incubated for 24 hrs by HPLC analysis; type: physicochemical; conditions: buffer, pH 4, 24 h
[12] = Cmax in fasted Sprague-Dawley rat at 15.5 mg/kg, po by LC-MS/MS analysis; type: ADME, organism-based; conditions: in vivo
[13] = AUC (0 to t) in fasted Sprague-Dawley rat at 15.5 mg/kg, po by LC-MS/MS analysis; type: ADME, organism-based; conditions: in vivo
[14] = AUC (0 to t) in fasted Sprague-Dawley rat at 19 mg/kg, po by LC-MS/MS analysis; type: ADME, organism-based; conditions: in vivo
[15] = Cmax in fasted Sprague-Dawley rat at 19 mg/kg, po by LC-MS/MS analysis; type: ADME, organism-based; conditions: in vivo
[16] = Aqueous solubility of compound; type: physicochemical; conditions: aqueous medium
[17] = AUC (0 to t) in fasted Sprague-Dawley rat at 21 mg/kg, po by LC-MS/MS analysis; type: ADME, organism-based; conditions: in vivo
[18] = Cmax in fasted Sprague-Dawley rat at 21 mg/kg, po by LC-MS/MS analysis; type: ADME, organism-based; conditions: in vivo
[19] = Oral bioavailability in fasted Cynomolgus monkey administered orally by LC-MS/MS analysis; type: ADME, organism-based, Macaca fascicularis; conditions: in vivo
[20] = Cmax in fasted Sprague-Dawley rat at 25 mg/kg, po by LC-MS/MS analysis; type: ADME, organism-based; conditions: in vivo
[21] = AUC (0 to t) in fasted Sprague-Dawley rat at 25 mg/kg, po by LC-MS/MS analysis; type: ADME, organism-based; conditions: in vivo
[22] = test system: Mammarenavirus choriomeningitidis; assay: In vivo antiviral activity against LCMV infected in C57BL/6-Prf1tm1Sdz/J mouse assessed as improvement in body weight loss at 300 mg/kg, po qd treated for 7 days; type: functional, organism-based; conditions: time 7.0 day
[23] = test system: Mammarenavirus choriomeningitidis; assay: In vivo antiviral activity against LCMV infected in C57BL/6-Prf1tm1Sdz/J mouse assessed as animal survival at 300 mg/kg, po qd treated for 7 days; type: functional, organism-based; conditions: time 7.0 day
[24] = test system: Mammarenavirus choriomeningitidis; assay: In vivo antiviral activity against LCMV infected in C57BL/6-Prf1tm1Sdz/J mouse assessed as improvement in lymphocytes percentage at 300 mg/kg, po qd treated for 7 days; type: functional, organism-based; conditions: time 7.0 day
[25] = test system: Mammarenavirus choriomeningitidis; assay: In vivo antiviral activity against LCMV infected in C57BL/6-Prf1tm1Sdz/J mouse assessed as improvement in platelet count at 300 mg/kg, po qd treated for 7 days; type: functional, organism-based; conditions: time 7.0 day
[26] = Half life in fasted Cynomolgus monkey administered orally by LC-MS/MS analysis; type: ADME, Macaca fascicularis; conditions: in vivo, route po
[27] = AUC (0 to t) in fasted Sprague-Dawley rat at 16.5 mg/kg, po by LC-MS/MS analysis; type: ADME, organism-based; conditions: in vivo
[28] = Cmax in fasted Sprague-Dawley rat at 16.5 mg/kg, po by LC-MS/MS analysis; type: ADME, organism-based; conditions: in vivo
[29] = Cmax in fasted Sprague-Dawley rat at 27 mg/kg, po by LC-MS/MS analysis; type: ADME, organism-based; conditions: in vivo
[30] = AUC (0 to t) in fasted Sprague-Dawley rat at 27 mg/kg, po by LC-MS/MS analysis; type: ADME, organism-based; conditions: in vivo
[31] = AUC (0 to t) in fasted Sprague-Dawley rat at 17.5 mg/kg, po by LC-MS/MS analysis; type: ADME, organism-based; conditions: in vivo
[32] = Cmax in fasted Sprague-Dawley rat at 17.5 mg/kg, po by LC-MS/MS analysis; type: ADME, organism-based; conditions: in vivo
[33] = Cmax in fasted Sprague-Dawley rat at 20 mg/kg, po by LC-MS/MS analysis; type: ADME, organism-based; conditions: in vivo
[34] = AUC (0 to t) in fasted Sprague-Dawley rat at 20 mg/kg, po by LC-MS/MS analysis; type: ADME, organism-based; conditions: in vivo

| SMILES | Activity [1] | Activity [2] | Activity [4] | Activity [5] | Activity [6] | Activity [8] | Activity [9] | Activity [10] | Activity [11] | bioavailability [19] | further results |
| --- | --- | --- | --- | --- | --- | --- | --- | --- | --- | --- | --- |
| CC(C)C(=O)OC[C@@]1(F)O[C@@H](n2ccc(=O)n(COC(=O)[C@@H]3CCCN3)c2=O)[C@H](OC(=O)C(C)C)[C@@H]1OC(=O)C(C)C.Cl | -4.1% | -7.9% | -30.6% | -35.2% | -1.3% | -30.5% | -27.6% | -62.4% | -84.8% |  | AUC(0-t) [3]: 7590 ng·h/mL; Cmax [7]: 1370 ng/mL |
| CCOC(=O)n1c(=O)ccn([C@@H]2O[C@](F)(COC(=O)C(C)C)[C@@H](O)[C@H]2O)c1=O |  |  |  |  |  |  |  |  |  |  | Cmax [12]: 569 ng/mL; AUC(0-t) [13]: 4650 ng·h/mL |
| CC(C)C(=O)OC[C@@]1(F)O[C@@H](n2ccc(=O)n(COC(=O)c3cccnc3)c2=O)[C@@H]2OC(=O)O[C@@H]21 | -5.5% | -9.5% | -88.3% | -1.9% | -2.1% | -76% | -45% | -5.4% | -10.5% |  | AUC(0-t) [14]: 9450 ng·h/mL; Cmax [15]: 1200 ng/mL |
| CC(=O)O[C@H]1[C@H](n2ccc(=O)n(COC(=O)c3cccnc3)c2=O)O[C@](F)(COC(=O)C(C)C)[C@H]1OC(C)=O | -5.6% | -10.4% | -31% | -0.1% | -2% | -16.4% | -6.7% | -0.1% | -0.2% | 86.4% | solubility [16]: 410 µg/mL (≈ 743 µM); AUC(0-t) [17]: 13500 ng·h/mL; Cmax [18]: 2190 ng/mL |
| CC(C)C(=O)O[C@H]1[C@H](n2ccc(=O)n(COC(=O)c3cccnc3)c2=O)O[C@](F)(COC(=O)c2cccnc2)[C@H]1OC(=O)C(C)C | -4.8% | -7.8% | -15.9% | -0.6% | -2.8% | -8.1% | -3.4% | -0.8% | -0.8% | 102% |  |
| CCC(=O)OC[C@@]1(F)O[C@@H](n2ccc(=O)n(COC(=O)c3cccnc3)c2=O)[C@H](OC(=O)CC)[C@@H]1OC(=O)CC | -5.3% | -9.8% | -9.7% | 0% | -1.9% | -4.9% | -1.9% | -0.1% | -0.1% |  |  |
| CC(C)C(=O)OC[C@@]1(F)O[C@@H](n2ccc(=O)n(COC(=O)[C@@H]3CCCN3C)c2=O)[C@H](OC(=O)C(C)C)[C@@H]1OC(=O)C(C)C.Cl | -3.6% | -7.6% | -95% | -10.9% | -1.5% | -95% | -62.9% | -29.8% | -52.7% | 91% | Cmax [20]: 2150 ng/mL; AUC(0-t) [21]: 14200 ng·h/mL |
| NC(=O)c1nc(F)cnc1O |  |  |  |  |  |  |  |  |  |  | Activity [22]: inactive; Activity [23]: inactive; Activity [24]: inactive; Activity [25]: inactive |
| CC(C)C(=O)OCn1c(=O)ccn([C@@H]2O[C@](F)(COC(=O)C(C)C)[C@@H](O)[C@H]2O)c1=O | -6% | -11.2% | -4.1% | -0.9% | -2% | -2.4% | -1% | -1.8% | -3% | 66.2% | half-life [26]: 6.84 h; AUC(0-t) [27]: 20100 ng·h/mL; Cmax [28]: 3140 ng/mL |
| O=C(OCn1c(=O)ccn([C@@H]2O[C@](F)(COC(=O)c3cccnc3)[C@@H](OC(=O)c3cccnc3)[C@H]2OC(=O)c2cccnc2)c1=O)c1cccnc1 |  |  |  |  |  |  |  |  |  |  | Cmax [29]: 708 ng/mL; AUC(0-t) [30]: 9080 ng·h/mL |
| CC(=O)OCCOC(=O)n1c(=O)ccn([C@@H]2O[C@](F)(COC(=O)C(C)C)[C@@H](O)[C@H]2O)c1=O |  |  |  |  |  |  |  |  |  |  | AUC(0-t) [31]: 4300 ng·h/mL; Cmax [32]: 915 ng/mL |
| CC(C)C(=O)OC[C@@]1(F)O[C@@H](n2ccc(=O)n(COC(=O)[C@@H](N)C(C)C)c2=O)[C@H](OC(=O)C(C)C)[C@@H]1OC(=O)C(C)C.Cl | -2.7% | -5.2% | -98.1% | -0.6% | -0.9% | -98.1% | -90.7% | -1.2% | -2.1% |  | AUC(0-t) [3]: 11700 ng·h/mL; Cmax [7]: 1640 ng/mL |
| CCOC(=O)OCn1c(=O)ccn([C@@H]2O[C@](F)(COC(=O)C(C)C)[C@@H](O)[C@H]2O)c1=O |  |  |  |  |  |  |  |  |  |  | AUC(0-t) [27]: 15800 ng·h/mL; Cmax [28]: 2440 ng/mL |
| CC(=O)OC[C@@]1(F)O[C@@H](n2ccc(=O)n(COC(=O)c3cccnc3)c2=O)[C@H](OC(C)=O)[C@@H]1OC(C)=O | -8.5% | -15.7% | -8.6% | 0% | -3% | -4.3% | -1.6% | -0.1% | -0.1% | 100% | solubility [16]: 700 µg/mL (≈ 1340 µM); Cmax [33]: 3120 ng/mL; AUC(0-t) [34]: 15700 ng·h/mL |
| CC(C)C(=O)OCn1c(=O)ccn([C@@H]2O[C@](F)(COC(=O)C(C)C)[C@@H](OC(=O)C(C)C)[C@H]2OC(=O)C(C)C)c1=O | -3.7% | -10.8% | -1.8% | 0% | -1.5% | -0.4% | 0% | 0% | 0% |  |  |
